Test results published in patent US20250228937A1, “MEDICAMENT FOR TREATMENT AND/OR PREVENTION OF CANCER” (TORAY INDUSTRIES, INC., priority 2021, published 2025).
Each block holds one molecule with its values, some of them ahead of it.

What was measured:
[1] = test system: human breast cancer cells BT474; test: In vivo antitumor effect of anti-CAPRIN-1 antibody and etoposide in BT474 cancer-bearing mice (Comparative Example 1); set-up: species or system NOD-SCID mice; conditions: etoposide alone, four times, day 55 after bearing cancer
Description: Next, an in vivo antitumor effect in a cancer-bearing mouse by a combined use of the anti-CAPRIN-1 antibody (anti-CAPRIN-1 humanized antibody #1) produced in Example 1 and etoposide (a topoisomerase inhibitor (topoisomerase II inhibitor) other than topotecan) was evaluated.
Specifically, the antitumor effect of the combination of the anti-CAPRIN-1 antibody and etoposide was studied using NOD-SCID mice in which human-derived cancer cells expressing CAPRIN-1 protein were subcutaneously transplanted. Human breast cancer cells BT474 were subcutaneously transplanted at 2×10^7 cells per mouse as a mixture with Matrigel (Sigma) and allowed to grow until a tumor became approximately 190 to 192 mm^3 to prepare cancer-bearing mice. […]
For a comparative control group, the same dose of the same anti-CAPRIN-1 antibody as above was administered once a week to cancer-bearing mice. […] After the start of administration, the sizes of cancers in the cancer-bearing mice were measured over time using calipers. The tumor volume of each individual was calculated according to a standard method using a calculation formula: (Length of the major axis of the tumor)×(Length of the minor axis of the tumor)^2×0.5, and the average of the treated group was calculated.

CAPRIN-1 protein = biological target: T1, CAPRIN-1 protein (Homo sapiens, UniProt Q14444); test: ELISA using CAPRIN-1 protein immobilized on a plate; type: binding
T1 construct: made in house
T1 sequence (Q14444 1-709): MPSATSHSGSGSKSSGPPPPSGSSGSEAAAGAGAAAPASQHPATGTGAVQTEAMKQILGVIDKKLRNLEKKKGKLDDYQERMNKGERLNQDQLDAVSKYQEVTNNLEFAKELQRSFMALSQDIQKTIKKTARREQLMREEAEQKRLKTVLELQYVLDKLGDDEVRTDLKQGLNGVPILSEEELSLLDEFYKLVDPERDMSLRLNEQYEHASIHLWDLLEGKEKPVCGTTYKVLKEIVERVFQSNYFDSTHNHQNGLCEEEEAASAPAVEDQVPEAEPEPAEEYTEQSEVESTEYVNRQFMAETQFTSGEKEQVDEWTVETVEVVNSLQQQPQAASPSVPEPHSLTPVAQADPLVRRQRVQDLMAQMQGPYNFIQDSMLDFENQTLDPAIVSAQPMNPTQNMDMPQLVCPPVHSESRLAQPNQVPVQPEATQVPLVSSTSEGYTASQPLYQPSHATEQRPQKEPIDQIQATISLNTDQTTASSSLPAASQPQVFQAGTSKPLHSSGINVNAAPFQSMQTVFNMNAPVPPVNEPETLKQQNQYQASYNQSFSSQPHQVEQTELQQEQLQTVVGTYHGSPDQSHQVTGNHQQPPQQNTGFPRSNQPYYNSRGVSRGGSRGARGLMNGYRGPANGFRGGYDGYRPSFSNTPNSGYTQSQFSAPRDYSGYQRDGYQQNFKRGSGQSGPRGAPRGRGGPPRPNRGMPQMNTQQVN
Description: One hundred (100) μg of a human CAPRIN-1 recombinant protein produced according to Example 3 of WO2010/016526 was mixed with an MPL+TDM adjuvant (Sigma) in an amount equivalent to that of the antigen protein. The mixture was used as an antigen solution per mouse. The antigen solution was administered intraperitoneally to 6-week-old Balb/c mice (Japan SLC Inc.) and then further administered 3 times […] every week for completion of immunization. A spleen was removed on day 3 after the final immunization and then ground between two sterilized glass slides. Spleen cells were obtained by repeating the following procedure three times: washing with PBS(−) (manufactured by Nissui Pharmaceutical Co., Ltd.), centrifuging at 1500 rpm for 10 minutes, and removing supernatant. The obtained spleen cells were mixed with mouse myeloma cell SP2/0 (purchased from ATCC) at a ratio of 10:1. The PEG solution prepared by mixing 200 μl of RPMI1640 medium containing 10% FBS heated at 37° C. and 800 μl of PEG1500 (Boehringer) was added to the cells. The solution was incubated for 5 minutes for cell fusion. Centrifugation was performed at 1700 rpm for 5 minutes to remove supernatants. […] Absorbance at 450 nm and absorbance at 595 nm were measured using an absorption spectrometer. As a result, a plurality of hybridomas producing antibodies with high absorbances were selected. […]

Molecule: COc1cc([C@@H]2c3cc4c(cc3[C@@H](O[C@@H]3O[C@@H]5CO[C@@H](C)O[C@H]5[C@H](O)[C@H]3O)[C@H]3COC(=O)[C@H]23)OCO4)cc(OC)c1O [etoposide]
tumor volume, assuming that the tumor volume of the negative control was 100% ([1]; high dose 15 mg/kg once every four days): 79%
tumor volume, assuming that the tumor volume of the negative control was 100% ([1]; low dose 5 mg/kg once every four days): 92%

reactivity with CAPRIN-1 protein (CAPRIN-1 protein): exhibiting reactivity
B1: (ab): mouse monoclonal antibody against CAPRIN-1 described in WO2013/125630, heavy-chain variable region SEQ ID NO: 114, light-chain variable region SEQ ID NO: 115 (antibody, listed as Mus musculus, V domains shown)
VH: GPELVKPGASVKMSCKASGYTFTSYVMHWVKQKPGQGLEWIGYINPYNDGTKYNEKFKGKATLTSDKSSSTAYMELSSLTSEDSAVYYCARRYYYGSSGGYFDVWAQDHVRT
VL: DVQITQSPSYLAASPGETITINCRASKSISKYLAWYQEKPGKTNKLLIYSGSTLQSGIPSRFSGSGSGTDFTLTISSLEPEDFAMYYCQQHNEYPYTFGGGTKLEIKR
